Results: patent publication US10925858B2, “S-nitrosoglutathione (GSNO) and GSNO reductase inhibitors for use in therapy” (MUSC FOUNDATION FOR RESEARCH DEVELOPMENT, priority 2017, dated 2021)

Assays:
[1] = test system: intracellular Ca^2+ ([Ca^2+]i) influx; experiment: Assay for intracellular Ca2+ influx in thrombin treated hBMVECs; format: cell-based, human; conditions: thrombin 0.1 unit/ml; L-NIO or FeTPPS 10 μM; GSNO or SIN-1 various concentrations
Procedure: Cell culture: Primary human brain microvascular endothelial cells (hBMVECs) were purchased from Angio-Proteomie (Cat #: cAP-0002, Atlanta, Ga.). The cells were cultured in cell culture flasks or plates precoated with Quick Coating Solution (Angio-Proteomie; Cat #: cAP-01) and maintained in Endothelial Growth Medium (Angio-Proteomie; Cat #: cAP-02) at 37° C. under 5% CO2/95% air. When the cells were almost confluent, the medium was replaced with endothelial basal medium (Angio-Proteomie; Cat #: cAP-03) containing 0.5% fetal bovine serum (FBS; Life Technologies, Grand Island, N.Y.) about 8-12 hours before the experiment. No institutional approval was required for this study. The study was not pre-registered. Intracellular Ca^2+ concentration ([Ca^2+]i) was measured with Fluo-4 Direct Calcium Assay Kit (Thermo Fisher Scientific, Cat #: F10471, Grand Island, N.Y.). Briefly, culture medium in the 96-well plate was replaced with a Ca^2+ sensitive dye Fluo-4 in an endothelial basal medium. After 30 min incubation, the dye was removed and cells were incubated with the original medium with or without the drugs at 37° C. for 15 min. Following thrombin treatment, time course changes of fluorescent intensity were quantified using a CLARIOstar multi-well fluorometer (BMG Labtech, Cary, N.C.).

[2] = test system: protein-associated 3-nitrotyrosine; experiment: Assay for protein-associated nitrotyrosine in hBMVECs; format: cell-based, human; conditions: thrombin 0.1 unit/ml 20 min; L-NIO or FeTPPS 10 μM pretreated 30 min; ELISA
Procedure: Cell culture: Primary human brain microvascular endothelial cells (hBMVECs) were purchased from Angio-Proteomie (Cat #: cAP-0002, Atlanta, Ga.). The cells were cultured in cell culture flasks or plates precoated with Quick Coating Solution (Angio-Proteomie; Cat #: cAP-01) and maintained in Endothelial Growth Medium (Angio-Proteomie; Cat #: cAP-02) at 37° C. under 5% CO2/95% air. When the cells were almost confluent, the medium was replaced with endothelial basal medium (Angio-Proteomie; Cat #: cAP-03) containing 0.5% fetal bovine serum (FBS; Life Technologies, Grand Island, N.Y.) about 8-12 hours before the experiment. No institutional approval was required for this study. The study was not pre-registered.
Cellular levels of protein-associated 3-nitrotyrosine were analyzed by ELISA Kit (Abeam, Cat #: ab116691) and Western blot analysis using antibody specific to 3-nitrotyrosine (Abeam, Cat #: ab61392). For the ELISA, hBMVECs were lysed in extraction buffer provided with the kit followed by centrifugation at 16,000×g 4° C. The cell lysate supernatants were subjected to protein quantification with Bio-Rad DC protein assay kit (Bio-Rad, Hercules, Calif.) and the equal amounts of proteins (500 μg) were loaded onto 96 well microplate coated with 3-nitrotyrosine capture antibody and followed by incubation with biotin-conjugated 3-nitrotyrosine detector antibody. Following washing, the plates were incubated with HRP-conjugated streptoavidin and the levels of 3-nitrotyrosine were measured by incubation with 3,3′,5,5′-tetramethylbenzidine solution and colorimetric analysis at […] using SpectraMax 190 Microplate Reader (Molecular Devices, Sunnyvale, Calif.). For analysis of degree of RhoA tyrosine nitration, the cell lysates were immunoprecipiated with antibody specific to 3-nitrotyrosine (Abeam) and the levels of tyrosine nitrated RhoA were analyzed by Western analysis for RhoA.

Compound | thrombin-induced intracellular Ca2+ influx [1] | thrombin-induced 3-nitrotyrosine levels [2]
Cl.O=S(=O)([O-])c1ccc(-c2c3nc(c(-c4ccc(S(=O)(=O)O)cc4)c4ccc([nH]4)c(-c4ccc(S(=O)(=O)O)cc4)c4nc(c(-c5ccc(S(=O)(=O)O)cc5)c5ccc2[nH]5)C=C4)C=C3)cc1.[Fe] [FeTPPS, 5,10,15,20-Tetrakis(4-sulfonatophenyl)porphyrinato Iron (III), Cl, reference compound] | had not effect | inhibited
N[C@@H](CCC(=O)N[C@@H](CSN=O)C(=O)NCC(=O)O)C(=O)O [GSNO, S-nitrosoglutathione] | inhibited | –
